From PubChem BioAssay AID1996
In brackets after ≈: the same amount, converted by molar mass.

conditions: buffer; pH 7.4; 200.0 µM

Structure (SMILES)	solubility kinetic [µg/mL]
COc1ccc(CNc2ncc(-c3ccccc3)n2C)cc1	28.6 (≈ 97.5 µM)
C=CCn1c(N)cc(=O)nc1SCC(=O)Nc1ccc(C)cc1	14.8 (≈ 44.8 µM)
Cc1ccc(C(=O)NCc2nc3ccccc3[nH]2)o1	> 38.3
CC(C)(C)c1ccc(/C=C2/SC(N3CCCC3)=NC2=O)cc1	15.4 (≈ 49 µM)
O=C(COc1ccccc1)Nc1ccc(Cl)cn1	12.7 (≈ 48.3 µM)
CCC(Oc1cccc(Cl)c1)C(=O)N1CCCN(C)CC1 (centres undefined)	> 46.6
Cc1cc(C)n2nc(SCC(=O)N3CCCC(C)C3)nc2n1 (centres undefined)	> 47.9
CC(C)CCN1C(=O)C2(OCCCO2)c2cc(Cl)ccc21	3 (≈ 9.68 µM)
Cc1ccc(NC(=O)C(C)NC(=O)OCc2ccccc2)cc1C (centres undefined)	2.4 (≈ 7.35 µM)
CC1CCCCC1NC(=O)c1ccco1 (centres undefined)	> 31.1
CCOC(=O)C(=CNc1ccccc1N1CCOCC1)C(=O)OCC	45.6 (≈ 131 µM)
c1ccc(SCc2nc3ccccc3s2)nc1	17.8 (≈ 68.9 µM)
COc1ccccc1N(C)S(=O)(=O)c1ccc(C(=O)Nc2ccc(C(N)=O)cc2)cc1	6.1 (≈ 13.9 µM)
CN(CC(=O)NCCN1CCOCC1)S(=O)(=O)c1ccc(Cl)cc1	> 56.4
N/C(=N\c1nc2ccccc2o1)NC(=O)c1cccc(Cl)c1	< 0.2
O=Cc1ccc2c(c1)CCN2Cc1ccccc1	15.2 (≈ 64.1 µM)
CC(C)S(=O)(=O)C/C(N)=N/OC(=O)c1cc(Cl)cc(Cl)c1	34.5 (≈ 97.7 µM)
O=C(NCc1ccco1)c1ccc(Cl)nc1	> 35.5
CC(OC(=O)c1cccc(O)c1)C(=O)N(C)Cc1ccccc1 (centres undefined)	> 47
S=C(NC1CC1)N1CCCc2ccccc21	33 (≈ 142 µM)
CN(CC(=O)Nc1ccc(F)cc1)CC(=O)N1CCCC1	43 (≈ 147 µM)
O=C(OCC(=O)N1CCCCC1)c1ccc(OC(F)(F)F)cc1	16.2 (≈ 48.9 µM)
CN(C)C(=O)CN1c2cccc3cccc(c23)S1(=O)=O	> 43.6
OCCN1CCN(C(=S)Nc2ccccc2)CC1	> 39.8
O=C(CN1CCN(C(=O)c2ccccc2)CC1)Nc1ccccc1	> 48.5

Structure (SMILES)	solubility kinetic [µg/mL]
Cc1cccc(C(=O)NCCCNC(=O)c2ccc(C)nc2)c1	44.1 (≈ 142 µM)
CCOc1ccc(C(=O)NCC(=O)N2CCCC2)cc1	> 41.5
O=C(CSc1nc2ccccc2s1)NC1CCCC1	38.6 (≈ 132 µM)
Cc1cc(/C=C(\C#N)C(=O)NCc2ccccc2)cc(C)c1O	< 0.3
Cc1ccc2cc(CCl)c(Cl)nc2c1	3.7 (≈ 16.4 µM)
O=C(Nc1ccc(Cl)cc1F)C1CC(=O)N(Cc2ccco2)C1 (centres undefined)	> 50.5
COc1ccc2c(c1)[C@@]13CCC=C[C@H]1[C@@H](C2)NCC3.Cl	> 43.8
CCc1ccc(NC(=S)N2CCCC2)cc1	> 35.2
Nn1c(SCC(=O)NC2CCS(=O)(=O)C2)nnc1-c1ccco1 (centres undefined)	> 53.6
CCC(=O)c1cc(F)ccc1OCC(=O)Nc1ccc2c(c1)OCCO2	6.2 (≈ 17.3 µM)
CS(=O)(=O)c1ccc2nc(NC(=O)Nc3ccccc3F)sc2c1	0.8 (≈ 2.19 µM)
CC(=O)N(Cc1cccs1)Cc1cc2cc(C)c(C)cc2nc1Cl	4.3 (≈ 12 µM)
O=C(Cc1ccccc1)NN1CCCCC1	> 32.7
CCc1ccc(NC(=O)C(C)OC(=O)Cc2cc(OC)c(OC)c(OC)c2)cc1 (centres undefined)	> 60.2
Cc1nc([N+](=O)[O-])c(C(=O)OCc2ccccc2F)n1C	41.8 (≈ 143 µM)
COc1ccc2[nH]c(=S)cc(C)c2c1	8.9 (≈ 43.4 µM)
O=C(CCN1C(=O)C2CC=CCC2C1=O)Nc1ccccc1Cl (centres undefined)	> 49.9
Cc1ccsc1C(=O)OCC(=O)NC1CC1	> 35.9
CCc1ccc(NC(=O)c2cc(Br)ccc2Br)cc1	< 0.8
CCN(CC)S(=O)(=O)c1ccc(NC(=O)c2cnccn2)cc1	7.8 (≈ 23.3 µM)
OCCCNc1nc(-c2ccc(Cl)cc2)nc2ccccc12	1.8 (≈ 5.74 µM)
O=C(/C=C/C(=O)NCc1cccs1)NCc1cccs1	0.6 (≈ 1.96 µM)
Cc1cc(Nc2ccc(C(=O)O)cc2)nc(N)n1	28 (≈ 115 µM)
COc1ccccc1OCCn1c(=S)[nH]c2ccccc21	1.4 (≈ 4.66 µM)
